Where two headings read alike, the source gives them in different places.
How the values were obtained:
Assay in all cases: [3H]flumazenil competition binding, HEK293 cell membranes
[1] = target: T1, human GABA A receptor α5βγ2 (Homo sapiens, UniProt P18507+P31644)
T1 construct: expressed in transfected cells; host or cells: HEK293
Experimental: (§1) The affinity of compounds at GABA A receptor subtypes was measured by competition for [^3H]flumazenil (85 Ci/mmol; Roche) binding to HEK293 cells expressing rat (stably transfected) or human (transiently transfected) receptors of composition α1β3γ2, α2β3γ2, α3β3γ2 and α5βγ2.
(§2) Cell pellets were suspended in Krebs-tris buffer (4.8 mM KCl, 1.2 mM CaCl2, 1.2 mM MgCl2, 120 mM NaCl, 15 mM Tris; pH 7.5; binding assay buffer), homogenized by polytron for ca. 20 sec on ice and centrifuged for 60 min at 4° C. (50000 g; Sorvall, rotor: SM24=20000 rpm). The cell pellets were resuspended in Krebs-tris buffer and homogenized by polytron for ca. 15 sec on ice. Protein was measured (Bradford method, Bio-Rad) and aliquots of 1 mL were prepared and stored at −80° C.
(§3) Radioligand binding assays were carried out in a volume of 200 μL (96-well plates) which contained 100 μL of cell membranes, [^3H]flumazenil at a concentration of 1 nM for α1, α2, α3 subunits and 0.5 nM for α5 subunits and the test compound in the range of 10^−10-3×10^−6 M. Nonspecific binding was defined by 10^−5 M diazepam and typically represented less than 5% of the total binding. Assays were incubated to equilibrium for 1 hour at 4° C. and harvested onto GF/C uni-filters (Packard) by filtration using a Packard harvester and washing with ice-cold wash buffer (50 mM Tris; pH 7.5). After drying, filter-retained radioactivity was detected by liquid scintillation counting. Ki values were calculated using Excel-Fit (Microsoft) and are the means of two determinations.

[2] = target: T2, human GABA A receptor α2β3γ2 (Homo sapiens, UniProt P18507+P47869)
T2 construct: expressed in transfected cells; host or cells: HEK293
Experimental: as §1, §2, §3

[3] = target: T3, human GABA A receptor α1β3γ2 (Homo sapiens, UniProt P14867+P18507)
T3 construct: expressed in transfected cells; host or cells: HEK293
Experimental: as §1, §2, §3

[4] = target: T4, human GABA A receptor α3β3γ2 (Homo sapiens, UniProt P18507+P34903)
T4 construct: expressed in transfected cells; host or cells: HEK293
Experimental: as §1, §2, §3

[5] = human α5βγ2, transiently transfected HEK293, 0.5 nM [3H]flumazenil, mean of two determinations, read-out: Ki[nM] hα5
[6] = human α2β3γ2, transiently transfected HEK293, 1 nM [3H]flumazenil, mean of two determinations, read-out: Ki[nM] hα2
[7] = human α1β3γ2, transiently transfected HEK293, 1 nM [3H]flumazenil, mean of two determinations, read-out: Ki[nM] hα1
[8] = human α3β3γ2, transiently transfected HEK293, 1 nM [3H]flumazenil, mean of two determinations, read-out: Ki[nM] hα3

| SMILES | Ki [1] [nM] | Ki [2] [nM] | Ki [3] [nM] | Ki [4] [nM] | Ki [1, 5] [nM] | Ki [2, 6] [nM] | Ki [3, 7] [nM] | Ki [4, 8] [nM] |
| --- | --- | --- | --- | --- | --- | --- | --- | --- |
| FCc1ncn2c1Cn1ncnc1-c1cc(Cl)ccc1-2 [Example 1, 3-Chloro-10-fluoromethyl-9H-imidazo[1,5-a][1,2,4]triazolo[1,5-d][1,4]benzodiazepine] | 9.4 | 67 | 59.1 | 40 | – | – | – | – |
| FC(F)c1ncn2c1Cn1ncnc1-c1cc(Cl)ccc1-2 [Example 2, 3-Chloro-10-difluoromethyl-9H-imidazo[1,5-a][1,2,4]triazolo[1,5-d][1,4]benzodiazepine] | 5.6 | 81.3 | 52.9 | 47.9 | – | – | – | – |
| FCc1ncn2c1Cn1ncnc1-c1cc(F)ccc1-2 [Example 3, 3-Fluoro-10-fluoromethyl-9H-imidazo[1,5-a][1,2,4]triazolo[1,5-d][1,4]benzodiazepine] | 9.1 | 25.4 | 49.9 | 26.2 | – | – | – | – |
| Fc1ccc2c(c1)-c1ncnn1Cc1c(C(F)F)ncn1-2 [Example 4, 3-Fluoro-10-difluoromethyl-9H-imidazo[1,5-a][1,2,4]triazolo[1,5-d][1,4]benzodiazepine] | 6.8 | 14.4 | 34.4 | 15.6 | – | – | – | – |
| Fc1ccc2c(c1)-c1ncnn1Cc1c(C(F)(F)F)ncn1-2 [Example 5, 3-Fluoro-10-trifluoromethyl-9H-imidazo[1,5-a][1,2,4]triazolo[1,5-d][1,4]benzodiazepine] | 7 | 23.9 | 39 | 27.7 | – | – | – | – |
| FCc1ncn2c1Cn1ncnc1-c1cc(Br)ccc1-2 [Example 6, 3-Bromo-10-fluoromethyl-9H-imidazo[1,5-a][1,2,4]triazolo[1,5-d][1,4]benzodiazepine] | 8.7 | 261 | 215 | 108 | – | – | – | – |
| FC(F)c1ncn2c1Cn1ncnc1-c1cc(Br)ccc1-2 [Example 7, 3-Bromo-10-difluoromethyl-9H-imidazo[1,5-a][1,2,4]triazolo[1,5-d][1,4]benzodiazepine] | – | – | – | – | 4.6 | 185 | 174 | 79.6 |
| FCc1ncn2c1Cn1ncnc1-c1cc(C3CC3)ccc1-2 [Example 8, 3-Cyclopropyl-10-fluoromethyl-9H-imidazo[1,5-a][1,2,4]triazolo[1,5-d][1,4]benzodiazepine] | 14.7 | 276 | 272 | 270 | – | – | – | – |
| FC(F)c1ncn2c1Cn1ncnc1-c1cc(C3CC3)ccc1-2 [Example 9, 3-Cyclopropyl-10-difluoromethyl-9H-imidazo[1,5-a][1,2,4]triazolo[1,5-d][1,4]benzodiazepine] | 13.3 | – | – | – | – | 160 | 216 | 192 |
| CCc1ccc2c(c1)-c1ncnn1Cc1c(C(F)F)ncn1-2 [Example 10, 10-Difluoromethyl-3-ethyl-9H-imidazo[1,5-a][1,2,4]triazolo[1,5-d][1,4]benzodiazepine] | 31.7 | – | – | – | – | 624 | 272 | 480 |
| FC(F)c1ncn2c1Cn1ncnc1-c1cc(Cc3ccccc3)ccc1-2 [Example 11, 3-Benzyl-10-difluoromethyl-9H-imidazo[1,5-a][1,2,4]triazolo[1,5-d][1,4]benzodiazepine] | 26.4 | – | – | – | – | 904 | 455 | 488 |
| C#Cc1ccc2c(c1)-c1ncnn1Cc1c(C(F)F)ncn1-2 [Example 12, 10-Difluoromethyl-3-ethynyl-9H-imidazo[1,5-a][1,2,4]triazolo[1,5-d][1,4]benzodiazepine] | 16.9 | – | – | – | – | 416 | 1460 | 512 |
| N#Cc1ccc2c(c1)-c1ncnn1Cc1c(C(F)F)ncn1-2 [Example 13, 3-Cyano-10-difluoromethyl-9H-imidazo[1,5-a][1,2,4]triazolo[1,5-d][1,4]benzodiazepine] | 16.5 | 246 | 246 | 106 | – | – | – | – |
| CC(F)(F)c1ncn2c1Cn1ncnc1-c1cc(F)ccc1-2 [Example 14, 10-(1,1-Difluoro-ethyl)-3-fluoro-9H-imidazo[1,5-a][1,2,4]triazolo[1,5-d][1,4]benzodiazepine] | 26.6 | 98.8 | – | 73.5 | – | – | 163 | – |
| CCC(F)(F)c1ncn2c1Cn1ncnc1-c1cc(F)ccc1-2 [Example 15, 10-(1,1-Difluoro-propyl)-3-fluoro-9H-imidazo[1,5-a][1,2,4]triazolo[1,5-d][1,4]benzodiazepine] | 3.2 | 11.3 | 15 | 8.9 | – | – | – | – |
| FC(F)c1ncn2c1Cn1ncnc1-c1ccccc1-2 [Example 16, 10-Difluoromethyl-9H-imidazo[1,5-a][1,2,4]triazolo[1,5-d][1,4]benzodiazepine] | 1.6 | 13.9 | 28.3 | 10.5 | – | – | – | – |
| FC(F)c1ncn2c1Cn1ncnc1-c1cc(N3CCOCC3)ccc1-2 [Example 17, 3-Morpholin-4-yl-10-difluoromethyl-9H-imidazo[1,5-a][1,2,4]triazolo[1,5-d][1,4]benzodiazepine] | – | – | – | – | 272 | > 3160 | 1870 | > 3160 |
| CCC(F)c1ncn2c1Cn1ncnc1-c1cc(Br)ccc1-2 (stereo not drawn) [Example 18, 3-Bromo-10-(1-fluoro-propyl)-9H-imidazo[1,5-a][1,2,4]triazolo[1,5-d][1,4]benzodiazepine] | 37.5 | – | – | – | – | 764 | 787 | 650 |
| CCC(F)(F)c1ncn2c1Cn1ncnc1-c1cc(Br)ccc1-2 [Example 19, 3-Bromo-10-(1,1-difluoro-propyl)-9H-imidazo[1,5-a][1,2,4]triazolo[1,5-d][1,4]benzodiazepine] | 6.4 | – | 32.9 | 77.2 | – | 147 | – | – |
| Cc1nc2n(n1)Cc1c(CF)ncn1-c1ccc(Cl)cc1-2 [Example 20, 3-Chloro-10-fluoromethyl-6-methyl-9H-imidazo[1,5-a][1,2,4]triazolo[1,5-d][1,4]benzodiazepine] | 2.5 | 181 | 50.1 | 117 | – | – | – | – |
| COc1ccc(-c2nc3n(n2)Cc2c(CF)ncn2-c2ccc(Cl)cc2-3)cc1OC [Example 21, 3-Chloro-6-(3,4-dimethoxyphenyl)-10-fluoromethyl-9H-imidazo[1,5-a][1,2,4]triazolo[1,5-d][1,4]benzodiazepine] | – | – | – | – | 152 | > 3160 | > 3160 | > 3160 |
